Results on 22 compounds are retold here after ChEMBL document CHEMBL4680322, “Mono- and bis-pyrazolophthalazines: Design, synthesis, cytotoxic activity, DNA/HSA binding and molecular docking studies” (Bioorg Med Chem, 2021).

Each structure is given as a SMILES string. Active and inactive are the calls of the source. No cut-off for these calls is given here.

For data set [1], the system named is MCF7. The data set is described as follows: Cytotoxicity against human MCF7 cells assessed as reduction in cell viability measured after 24 hrs by MTT assay. It counts as functional, cell-based. The following applies: MCF7, 24 h. Background: Tetrazolium assays rely on reduction of a dye to a coloured formazan, in cell work by metabolically active cells.
Data set [2] concerns A549. The data set is described as follows: Cytotoxicity against human A549 cells assessed as reduction in cell viability measured after 24 hrs by MTT assay. It counts as functional, cell-based. The following applies: A549, 24 h.
In the next data set the test system is HepG2. Put plainly: Cytotoxicity against human HepG2 cells assessed as reduction in cell viability measured after 24 hrs by MTT assay. The following applies: HepG2, 24 h. It counts as functional, cell-based.
The next data set deals with HT-29. The data set is described as follows: Cytotoxicity against human HT-29 cells assessed as reduction in cell viability measured after 24 hrs by MTT assay. It counts as functional, cell-based. Particulars: HT-29, 24 h.
The subject of a further data set is MRC5. The data set is described as follows: Cytotoxicity against human MRC5 cells assessed as reduction in cell viability. The class given is cell-based.
The next data set has as its system MCF-10A. The data set is described as follows: Cytotoxicity against human MCF-10A cells assessed as reduction in cell viability. It counts as cell-based.
For data set [3], the system named is Calf thymus DNA. The data set is described as follows: Binding affinity to calf thymus DNA assessed as decrease in positive ellipticity by retaining basic CD spectrum shape at 187 uM by circular dichroism spectroscopy. Particulars: Bos taurus. Background: Circular dichroism is the unequal absorption of left and right circularly polarised light.
The target in data set [4] is T1, Albumin (Homo sapiens, UniProt P02768). The data set is described as follows: Binding affinity to human serum albumin assessed as apparent binding constant for protein-compound complex by B-H plot analysis. The class given is ADME, cell-free.
In data set [5] the test system is Calf thymus DNA. Put plainly: Binding affinity to calf thymus DNA assessed as DNA-compound complex formation causing decrease in lambda-max shift at 3 to 187 uM and pH 7.4 by UV-Visible spectroscopy. The following applies: Bos taurus, dose 3-187 µM.
Data set [6] has as its target T1, Albumin. The data set is described as follows: Binding affinity to human serum albumin assessed as conformational changes at 2 to 187 uM by UV-Visible spectroscopy. It counts as ADME, cell-free. Particulars: dose 2-187 µM.
Data set [7] addresses T1, Albumin. Put plainly: Binding affinity to human serum albumin assessed as microenvironmental changes at 2 to 187 uM by UV-Visible spectroscopy. The following applies: dose 2-187 µM. The class given is ADME, cell-free.
For data set [8], the target named is T1, Albumin. Put plainly: Binding affinity to human serum albumin assessed as zeta potential by measuring surface charge (reference value: -16.15 mV). The class given is ADME, cell-free.
The target in data set [9] is T1, Albumin. The data set is described as follows: Binding affinity to human serum albumin assessed as change in hydrodynamic radius by dynamic light scattering analysis (reference value: 3.56 nanometer). It counts as ADME, cell-free.
Data set [10] deals with T1, Albumin. Put plainly: Binding affinity to human serum albumin assessed as compound-protein complex stoichiometry ratio of 1:1 by B-H plot analysis. It counts as ADME, cell-free.
Data set [11] addresses T1, Albumin. Put plainly: Binding affinity to human serum albumin assessed as alpha-helix perturbation with reduction in absorption intensity at 214 nm causing blue shift at 2 to 187 uM by UV-Visible spectroscopy. It counts as ADME, cell-free. The following applies: dose 2-187 µM.
Data set [12] concerns Calf thymus DNA. Put plainly: Binding affinity to calf thymus DNA assessed as zeta potential (reference value: -24.16 mV). The class given is tissue-based. The following applies: Bos taurus.
Data set [13] relates to Calf thymus DNA. The data set is described as follows: Binding affinity to calf thymus DNA assessed as DNA-compound complex formation causing decrease in band intensity at 3 to 187 uM and pH 7.4 by UV-Visible spectroscopy. The following applies: Bos taurus, dose 3-187 µM.
The target in data set [14] is T1, Albumin. Put plainly: Binding affinity to human serum albumin assessed as induction of secondary structural changes by measuring decrease in alpha content at 187 uM by circular dichroism spectroscopy relative to control. The class given is cell-free. Details: scale not given: the % may be the effect or the level left.
The test system of data set [15] is Calf thymus DNA. Put plainly: Binding affinity to calf thymus DNA assessed as apparent binding constant for DNA-compound complex by B-H plot analysis. The following applies: Bos taurus.
Data set [16] has as its system Calf thymus DNA. The data set is described as follows: Binding affinity to calf thymus DNA assessed as compound-DNA complex stoichiometry ratio of 1:1 by B-H plot analysis. The following applies: Bos taurus.
For data set [17], the system named is A549. The data set is described as follows: Potency index, ratio of doxorubicin IC50 to test compound IC50 for human A549 cells assessed as reduction in cell viability measured after 24 hrs by MTT assay. It counts as functional.
The subject of data set [18] is MCF7. The data set is described as follows: Potency index, ratio of doxorubicin IC50 to test compound IC50 for human MCF7 cells assessed as reduction in cell viability measured after 24 hrs by MTT assay. It counts as functional.

T1 sequence (P02768 whole entry): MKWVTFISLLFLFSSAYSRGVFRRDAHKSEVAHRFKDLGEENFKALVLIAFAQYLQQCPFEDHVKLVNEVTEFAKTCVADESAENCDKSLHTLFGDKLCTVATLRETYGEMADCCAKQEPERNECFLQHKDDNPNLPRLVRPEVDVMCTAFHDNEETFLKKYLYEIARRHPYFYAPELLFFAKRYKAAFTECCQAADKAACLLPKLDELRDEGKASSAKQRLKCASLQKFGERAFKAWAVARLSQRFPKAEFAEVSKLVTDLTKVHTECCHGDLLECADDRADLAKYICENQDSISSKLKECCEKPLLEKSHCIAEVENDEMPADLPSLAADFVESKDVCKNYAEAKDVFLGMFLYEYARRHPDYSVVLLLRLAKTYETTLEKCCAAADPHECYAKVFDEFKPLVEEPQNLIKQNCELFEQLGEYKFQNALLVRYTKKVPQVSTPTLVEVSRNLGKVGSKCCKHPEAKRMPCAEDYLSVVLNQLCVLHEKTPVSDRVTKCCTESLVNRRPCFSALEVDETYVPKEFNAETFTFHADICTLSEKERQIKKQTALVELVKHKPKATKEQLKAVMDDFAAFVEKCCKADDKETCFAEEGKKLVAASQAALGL

With `COc1cccc2c1C(=O)c1c(O)c3c(c(O)c1C2=O)C[C@@](O)(C(=O)CO)C[C@@H]3O[C@H]1C[C@H](N)[C@H](O)[C@H](C)O1` [DOXORUBICIN], the IC50 (usually the concentration at which inhibition is half-maximal) in the data set on MCF7 [1] was determined as 1.77 µM; in the data set on A549 [2], 2.31 µM; in the data set on HepG2 it was 2.32 µM; in the data set with HT-29, 1.13 µM; in the data set on MRC5, 3.88 µM; in the data set with MCF-10A, 3.52 µM.
In the case of `N#CC1=C(N)n2c(=O)c3ccccc3c(=O)n2C1c1cccc(C2C(C#N)=C(N)n3c(=O)c4ccccc4c(=O)n32)c1` (centres undefined), the IC50 in the data set on MCF7 [1] came out at 8.66 µM; with A549 [2] it was 18.2 µM; with HepG2, 50.8 µM; in the data set with HT-29, 186 µM.
The like results for `N#CC1=C(N)n2c(=O)c3ccccc3c(=O)n2C1c1ccccc1OCCCOc1ccccc1C1C(C#N)=C(N)n2c(=O)c3ccccc3c(=O)n21` (centres undefined) were, in that order, 35.2 µM, 104 µM, 104 µM and 44.6 µM.
In the case of `N#CC1=C(N)n2c(=O)c3ccccc3c(=O)n2C1c1ccc(C2C(C#N)=C(N)n3c(=O)c4ccccc4c(=O)n32)cc1` (centres undefined), the IC50 came out at 11.4 µM with MCF7 [1], 17.6 µM in the data set on A549 [2], 84.6 µM with HepG2 and 90.9 µM in the data set with HT-29.
For `N#CC1=C(N)n2c(=O)c3ccccc3c(=O)n2C1c1ccc(Cl)cc1Cl` (centres undefined), the IC50 with MCF7 [1] amounted to 10.4 µM; in the data set on A549 [2], 64 µM; with HepG2, 11.4 µM; with HT-29, 1.56 µM.
Taken in the same sequence, the figures for `N#CC1=C(N)n2c(=O)c3ccccc3c(=O)n2C1c1ccc([N+](=O)[O-])cc1` (centres undefined) were 60.8 µM, 212 µM, 170 µM and 79.1 µM.
Taken in the same sequence, the figures for `N#CC1=C(N)n2c(=O)c3ccccc3c(=O)n2C1c1ccc(OCCCCOc2ccc(C3C(C#N)=C(N)n4c(=O)c5ccccc5c(=O)n43)cc2)cc1` (centres undefined) were 155 µM, 264 µM, 426 µM and 419 µM.
The like results for `COc1ccccc1C1C(C#N)=C(N)n2c(=O)c3ccccc3c(=O)n21` (centres undefined) were, in that order, 455 µM, 627 µM, 697 µM and 79.7 µM.
Take `N#CC1=C(N)n2c(=O)c3ccccc3c(=O)n2C1c1cccc(Cl)c1` (centres undefined): the IC50 in the data set on MCF7 [1] was determined as 7.84 µM; with A549 [2], 11.6 µM; in the data set on HepG2, 28.2 µM; in the data set on HT-29 it was 69.3 µM.
Taken in the same sequence, the figures for `N#CC1=C(N)n2c(=O)c3ccccc3c(=O)n2C1c1ccccc1OCCCCOc1ccccc1C1C(C#N)=C(N)n2c(=O)c3ccccc3c(=O)n21` (centres undefined) were 44.6 µM, 111 µM, 244 µM and 82.4 µM.
The like results for `N#CC1=C(N)n2c(=O)c3ccccc3c(=O)n2C1c1cccc([N+](=O)[O-])c1` (centres undefined) were, in that order, 39.9 µM, 18.3 µM, 12.6 µM and 41.1 µM.
Turning to `N#CC1=C(N)n2c(=O)c3ccccc3c(=O)n2C1c1ccccc1` (centres undefined), the IC50 in the data set on MCF7 [1] was 41.6 µM; with A549 [2], 39.7 µM; in the data set on HepG2, 81.7 µM; in the data set with HT-29, 132 µM.
In the case of `N#CC1=C(N)n2c(=O)c3ccccc3c(=O)n2C1c1ccc(O)c([N+](=O)[O-])c1` (centres undefined), the IC50 stood at 77.4 µM in the data set on MCF7 [1], 47.5 µM in the data set on A549 [2], 19.5 µM in the data set with HepG2 and 124 µM in the data set with HT-29.
Turning to `N#CC1=C(N)n2c(=O)c3ccccc3c(=O)n2C1c1ccc(OCCCOc2ccc(C3C(C#N)=C(N)n4c(=O)c5ccccc5c(=O)n43)cc2)cc1` (centres undefined), the IC50 with MCF7 [1] amounted to 0.66 µM; in the data set on A549 [2], 2.47 µM; with HepG2 it was 36.2 µM; with HT-29, 3.1 µM.
Consider `COc1ccc(C2C(C#N)=C(N)n3c(=O)c4ccccc4c(=O)n32)cc1OC` (centres undefined), for which the IC50 with MCF7 [1] came out at 5.1 µM; in the data set with A549 [2], 24.7 µM; in the data set with HepG2 it was 73.5 µM; in the data set on HT-29 it was 36.4 µM.
Consider `N#CC1=C(N)n2c(=O)c3ccccc3c(=O)n2C1c1ccc(OCCOc2ccc(C3C(C#N)=C(N)n4c(=O)c5ccccc5c(=O)n43)cc2)cc1` (centres undefined), for which the IC50 was 91.3 µM in the data set on MCF7 [1], 183 µM in the data set on A549 [2], 249 µM with HepG2 and 268 µM in the data set with HT-29.
As for `N#CC1=C(N)n2c(=O)c3ccccc3c(=O)n2C1c1ccccc1Cl` (centres undefined), the Activity with Calf thymus DNA [3] was -18.1 mV; at Albumin [6], “Active”; on Albumin [7] it was “Active”; on Albumin [8], -13.25 mV; on Albumin [9] it was 5.13 nm; at Albumin [10], “Active”. The Activity entry on Albumin [11] is “Active”; on Albumin [14], 47.71%. Further, the Kapp was 5.2 10^3/M on Albumin [4] and 4.2 10^4/M in the data set with Calf thymus DNA [15]. Further, the outcome in the data set on Calf thymus DNA [5], with Calf thymus DNA [12], with Calf thymus DNA [13] and in the data set with Calf thymus DNA [16] was Active. Besides, the IC50 is 7.32 µM with MCF7 [1]; 1.25 µM in the data set on A549 [2]; 27.9 µM with HepG2; 7.14 µM in the data set with HT-29; 388 µM in the data set on MRC5; 213 µM in the data set on MCF-10A.
`COc1cccc(C2C(C#N)=C(N)n3c(=O)c4ccccc4c(=O)n32)c1` (centres undefined): the IC50 in the data set on MCF7 [1] stood at 23.2 µM; in the data set on A549 [2] it was 38.3 µM; in the data set with HepG2 it was 178 µM; in the data set with HT-29, 107 µM.
The like results for `COc1ccc(C2C(C#N)=C(N)n3c(=O)c4ccccc4c(=O)n32)cc1` (centres undefined) were, in that order, 23.9 µM, 39.8 µM, 93.8 µM and 66.5 µM.
Turning to `N#CC1=C(N)n2c(=O)c3ccccc3c(=O)n2C1c1ccccc1OCCOc1ccccc1C1C(C#N)=C(N)n2c(=O)c3ccccc3c(=O)n21` (centres undefined), the “Ratio IC50” value in the data set on A549 [17] and with MCF7 [18] was 2 in each case. Further, the Activity is -17.8 mV in the data set on Calf thymus DNA [3]; “Active” on Albumin [6]; “Active” at Albumin [7]; -14.41 mV on Albumin [8]; 5.28 nm at Albumin [9]; “Active” at Albumin [10]. Besides, the Activity entry at Albumin [11] is “Active”; on Albumin [14], 48.08%. The Kapp is 3.8 10^4/M on Albumin [4] and 5 10^4/M with Calf thymus DNA [15]. The outcome in the data set with Calf thymus DNA [5], with Calf thymus DNA [12], in the data set with Calf thymus DNA [13] and in the data set with Calf thymus DNA [16] was Active. The IC50 with MCF7 [1] was found to be 0.49 µM; in the data set with A549 [2], 1.35 µM; in the data set on HepG2, 11.6 µM; in the data set with HT-29, 3.71 µM; in the data set with MRC5, 71.2 µM; in the data set on MCF-10A it was 61.2 µM.
Regarding `N#CC1=C(N)n2c(=O)c3ccccc3c(=O)n2C1c1ccc(Br)cc1` (centres undefined), the IC50 came to 5.97 µM in the data set on MCF7 [1], 81.6 µM with A549 [2], 40.5 µM in the data set with HepG2 and 31 µM in the data set with HT-29.
The like results for `N#CC1=C(N)n2c(=O)c3ccccc3c(=O)n2C1c1ccc(Cl)cc1` (centres undefined) were, in that order, 5.53 µM, 40.6 µM, 16.8 µM and 25.4 µM.
